Assay results: patent US20100119599A1 (ARCHER PHARMACEUTICALS, INC., priority 2006, published 2010)
Counter-ions that a name gives are not always drawn.

Legend:
[1] = test system: Aβ1-40; assay: Measurement of Aβ1-40 in culture medium of 7W WT APP751 CHO cells by ELISA; assay type: cell-based, Chinese hamster; details: for Aβ1-40 (% of control): CHO cells that overexpress APP751, zero = below the detection limit of the assay; for activity at 5 µM: Cricetulus griseus, Table 3, 5 μM test compound, CHO cells stably transfected with human APP751, culture medium, ELISA, control DMSO;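 as to all read-outs here: 5 µM test compound but RI-coded compounds at 10 µM for 24 hours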
Method: (§1) Chinese hamster ovary (CHO) cells, stably transfected with human APP751 (7W WT APP751 CHO cells) were used. See, e.g., Koo and Squazzo, J. Biol. Chem., 269(26): 17386-17389, 1994. The cells were maintained in DMEM medium supplemented with 10% fetal bovine serum and 1× mixture of penicillin/streptomycin/fungizone/glutamine mixture (Cambrex, Md.) geneticin as selecting agent in 75 cm^2 cell culture flasks. The 7W WT APP751 CHO cells were plated in 96-well cell culture plates in quadruplicate, containing 200 microliters of culture medium, for 18 hours at 37° C. and 5% CO2. All test compounds were placed in dimethyl sulfoxide (DMSO) before being added to the cultured confluent 7W WT APP751 CHO cells to a concentration of the test compound of 5 μM. The culture medium was collected and diluted before being assayed by ELISAs for Aβ1-40 at 10-fold dilution and Aβ1-42 at 2-fold dilution, respectively. Concentrations of Aβ1-40 and Aβ1-42, expressed in pg/ml, were determined using commercially available ELISAs (Biosource, Calif.) in a colorimetric assay using labeled antibodies detected spectrophotometrically. For compounds with an identification beginning “RI”, the compounds were tested at a concentration of 10 μM for 24 hours. Control cells were treated with DMSO containing no compound. The percentage reduction in levels of Aβ1-40 and Aβ1-42 as compared to control cells not exposed to the test compounds are reported for the compounds in Tables 1, 2, and 3, supra. An entry of “0” indicates no detectable amount of Aβ1-40 or Aβ1-42 according to the assay conditions. The data in Tables 1, 2, and 3 may be rounded to the nearest 0.1%.

[2] = test system: Aβ1-42; assay: Measurement of Aβ1-42 in culture medium of 7W WT APP751 CHO cells by ELISA; assay type: cell-based, Chinese hamster; details: for Aβ1-42 (% of control): CHO cells that overexpress APP751, zero = below the detection limit of the assay; for activity at 5 µM: Cricetulus griseus, Table 3, 5 μM test compound, CHO cells stably transfected with human APP751, culture medium, ELISA, control DMSO, read-out: Aβ-42 (% of control);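 as to Aβ1-42 (% of control): 5 µM test compound but RI-coded compounds at 10 µM for 24 hours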
Method: as §1

Row | SMILES | Aβ1-40 (% of control) [1] | Aβ1-42 (% of control) [2] | activity at 5 µM [1] | activity at 5 µM [2]
1 | CC1=C(C(=O)Nc2ccccc2)C(c2ccsc2)C(C#N)=C(SCC(=O)Nc2ccc(Cl)cc2)N1 (stereo not drawn) [RI_75] | 27.3 % of control | 38.6 % of control | – | –
2 | CC1=C(C(=O)Nc2ccccc2)C(c2cccs2)C(C#N)=C(SCC(=O)Nc2ccc(F)cc2)N1 (stereo not drawn) [RI_76] | 46.2 % of control | 54.6 % of control | – | –
3 | CC1=C(C(=O)Nc2ccccc2)C(c2ccsc2)C(C#N)=C(SCC(=O)Nc2ccc(F)cc2)N1 (stereo not drawn) [RI_77] | 16.9 % of control | 25.4 % of control | – | –
4 | CCc1cccc(NC(=O)CSC2=C(C#N)C(c3ccc(C)s3)C(C(=O)Nc3ccccc3)=C(C)N2)c1 (stereo not drawn) [RI_78] | 77.32 % of control | 88.1 % of control | – | –
5 | CCc1cccc(NC(=O)CSC2=C(C#N)C(c3sccc3C)C(C(=O)Nc3ccccc3)=C(C)N2)c1 (stereo not drawn) [RI_79] | 55.46 % of control | 51.6 % of control | – | –
6 | CCc1cccc(NC(=O)CSC2=C(C#N)C(c3cc(Br)cs3)C(C(=O)Nc3ccccc3)=C(C)N2)c1 (stereo not drawn) [RI_80] | 64.37 % of control | 54.3 % of control | – | –
7 | CCc1cccc(NC(=O)CSC2=C(C#N)C(c3sccc3Oc3ccccc3)C(C(=O)Nc3ccccc3)=C(C)N2)c1 (stereo not drawn) [RI_81] | 73.6 % of control | 100 % of control | – | –
8 | CCc1cccc(NC(=O)CSC2=C(C#N)C(c3sccc3Br)C(C(=O)Nc3ccccc3)=C(C)N2)c1 (stereo not drawn) [RI_82] | 67.5 % of control | 67.9 % of control | – | –
9 | CC1=C(C(=O)Nc2ccccc2)C(c2ccsc2)C(C#N)=C(SCC(=O)Nc2ccc(Cl)c(C)c2)N1 (stereo not drawn) [RI_83] | 44.1 % of control | 55.4 % of control | – | –
10 | CCc1cccc(NC(=O)CSC2=C(C#N)C(c3cc4cccnc4s3)C(C(=O)Nc3ccccc3)=C(C)N2)c1 (stereo not drawn) [RI_84] | 64.2 % of control | 44.5 % of control | – | –
11 | CCc1cccc(NC(=O)CSC2=C(C#N)C(c3ccc(-c4ccco4)s3)C(C(=O)Nc3ccccc3)=C(C)N2)c1 (stereo not drawn) [RI_85] | 98.5 % of control | 46.7 % of control | – | –
12 | CCc1cccc(NC(=O)CSC2=C(C#N)C(c3ccc(-c4ccccn4)s3)C(C(=O)Nc3ccccc3)=C(C)N2)c1 (stereo not drawn) [RI_86] | 32.8 % of control | 21.8 % of control | – | –
13 | CCc1cccc(NC(=O)CSC2=C(C#N)C(c3cc4ccccc4s3)C(C(=O)Nc3ccccc3)=C(C)N2)c1 (stereo not drawn) [RI_87] | 77.1 % of control | 49 % of control | – | –
14 | CCc1cccc(NC(=O)CSC2=C(C#N)C(c3ccc(Cl)s3)C(C(=O)Nc3ccccc3)=C(C)N2)c1 (stereo not drawn) [RI_88] | 70.1 % of control | 54.6 % of control | – | –
15 | CCc1cccc(NC(=O)CSC2=C(C#N)C(c3ccc(-c4ccccc4)s3)C(C(=O)Nc3ccccc3)=C(C)N2)c1 (stereo not drawn) [RI_89] | 63.7 % of control | 55.1 % of control | – | –
16 | CCc1cccc(NC(=O)CSC2=C(C#N)C(c3ccc(-c4cccs4)s3)C(C(=O)Nc3ccccc3)=C(C)N2)c1 (stereo not drawn) [RI_90] | 63.9 % of control | 42.9 % of control | – | –
17 | CC1=C(C(=O)Nc2ccccc2)C(c2cccs2)C(C#N)=C(SCC(=O)Nc2cccc(C)c2)N1 (stereo not drawn) [RI_91] | 55.9 % of control | 60.7 % of control | – | –

Row | SMILES | Aβ1-40 (% of control) [1] | Aβ1-42 (% of control) [2] | activity at 5 µM [1] | activity at 5 µM [2]
18 | CCc1cccc(NC(=O)CSC2=C(C#N)C(c3csc4ccccc34)C(C(=O)Nc3ccccc3)=C(C)N2)c1 (stereo not drawn) [RI_92] | 60.7 % of control | 47.3 % of control | – | –
19 | CC1=C(C(=O)Nc2ccccc2)C(c2cccs2)C(C#N)=C(SCC(=O)Nc2cc(C)ccc2C)N1 (stereo not drawn) [RI_93] | 42.6 % of control | 58 % of control | – | –
20 | COc1cc(Br)ccc1/C=c1\sc2n(c1=O)C(N)=C(C#N)C(c1ccc(Br)cc1OC)C=2C#N (stereo not drawn) [RI_94] | 73.2 % of control | 81.2 % of control | – | –
21 | N#CC1=C(N)n2c(s/c(=C\c3ccccc3)c2=O)=C(C#N)C1c1ccccc1 (stereo not drawn) [RI_95] | 67.9 % of control | 69.9 % of control | – | –
22 | N#CC1=C(N)n2c(s/c(=C\c3cccc(Br)c3)c2=O)=C(C#N)C1c1cccc(Br)c1 (stereo not drawn) [RI_96] | 71.3 % of control | 70.5 % of control | – | –
23 | N#CC1=C(N)N2C(=O)C(Cc3ccc(Br)cc3)SC2=C(C#N)C1c1ccc(Br)cc1 (stereo not drawn) [RI_97] | 76.7 % of control | 74.9 % of control | – | –
24 | N#CC1=C(N)n2c(s/c(=C\c3cccs3)c2=O)=C(C#N)C1c1cccs1 (stereo not drawn) [RI_98] | 74.6 % of control | 78.2 % of control | – | –
25 | Cc1cc(=O)cc(C)n1NC(N)=S [ST002431, 1-[(aminothioxomethyl)amino]-2,6-dimethylhydropyridin-4-one] | – | – | 16.9% | 97.6%
26 | Cc1ccccc1/C=c1/sc2n(c1=O)C(N)=C(C#N)C(c1ccccc1C)C=2C#N (stereo not drawn) [ST003359, 5-amino-7-(2-methylphenyl)-2-[(2-methylphenyl)methylene]-3-oxo-4,7-dihydro-1,3-thiazolidino[3,2-a]pyridine-6,8-dicarbonitrile] | 56.16 % of control | 98.22 % of control | – | –
27 | N#CC1=C(N)n2c(s/c(=C/c3ccc(Cl)cc3Cl)c2=O)=C(C#N)C1c1ccc(Cl)cc1Cl (stereo not drawn) [ST003360, 5-amino-7-(2,4-dichlorophenyl)-2-[(2,4-dichlorophenyl)methylene]-3-oxo-4,7-dihydro-1,3-thiazolidino[3,2-a]pyridine-6,8-dicarbonitrile] | 63.37 % of control | 72.55 % of control | – | –
28 | Cn1cccc1/C=c1/sc2n(c1=O)C(N)=C(C#N)C(c1cccn1C)C=2C#N (stereo not drawn) [ST003361, 5-amino-7-(1-methylpyrrol-2-yl)-2-[(1-methylpyrrol-2-yl)methylene]-3-oxo-4,7-dihydro-1,3-thiazolidino[3,2-a]pyridine-6,8-dicarbonitrile] | 43.9 % of control | 90.24 % of control | – | –
29 | CCOC(=O)C1=C(C)NC(C)=C(C(=O)OCC)C1c1cccc(NC(=O)C(F)(F)F)c1 [ST003836, ethyl 5-(ethoxycarbonyl)-2,6-dimethyl-4-[3-(2,2,2-trifluoroacetylamino)phenyl]-1,4-dihydropyridine-3-carboxylate] | 45.34 % of control | 83.98 % of control | – | –
30 | Cc1ccsc1/C=c1\sc2n(c1=O)C(N)=C(C#N)C(c1sccc1C)C=2C#N (stereo not drawn) [ST006952, 5-amino-7-(3-methyl(2-thienyl))-2-[(3-methyl(2-thienyl))methylene]-3-oxo-4,7-dihydro-1,3-thiazolidino[3,2-a]pyridine-6,8-dicarbonitrile] | 48.24 % of control | 77.1 % of control | – | –
31 | N#CC1=C(N)n2c(s/c(=C\c3ccccc3Cl)c2=O)=C(C#N)C1c1ccccc1Cl (stereo not drawn) [ST006953] | 47.74 % of control | 83.98 % of control | – | –
32 | CC1=C(C(=O)Nc2ccccc2)C(c2ccncc2)C(C#N)=C(S)N1 (stereo not drawn) [ST007526, (5-cyano-2-methyl-4-(4-pyridyl)-6-sulfanyl(3-1,4-dihydropyridyl))-N-benzamide, 4-methylmorpholine salt] | 72.5 % of control | 81.23 % of control | – | –
33 | CCOC(=O)C1=C(C)NC(C)=C(C(=O)OCC)C1C(=O)O [ST007544, 3,5-bis(ethoxycarbonyl)-2,6-dimethyl-1,4-dihydropyridine-4-carboxylic acid] | – | – | 78.7% | 80.1%
